A short description of data set [1]: UV–vis spectra and optimal isomerization wavelengths. The class given is physicochemical. On the procedure:
Ultraviolet–visible (UV–vis) spectra were recorded using a Tecan Spark 20M Multimode Microplate reader. Samples (200 μL of compound solution/well) were prepared at […] in DMSO. Samples were measured between 300 and 800 nm with 2 nm fixed intervals in 96-well transparent plates. Illumination at different wavelengths was performed for 2 min using 96-well LED array plates (LEDA Teleopto) placed below the samples. […] Potencies were measured using a Thorlabs PM100D power energy meter connected with a standard photodiode power sensor (S120VC).

Data set [2] in a line: E/Z composition under light or temperature conditions by HPLC. Type of data set: physicochemical.
The target of the next data set is T1, human recombinant HDAC1 (Homo sapiens, UniProt Q13547).
T1 construct: purchased BPS Bioscience
T1 sequence (Q13547 whole entry): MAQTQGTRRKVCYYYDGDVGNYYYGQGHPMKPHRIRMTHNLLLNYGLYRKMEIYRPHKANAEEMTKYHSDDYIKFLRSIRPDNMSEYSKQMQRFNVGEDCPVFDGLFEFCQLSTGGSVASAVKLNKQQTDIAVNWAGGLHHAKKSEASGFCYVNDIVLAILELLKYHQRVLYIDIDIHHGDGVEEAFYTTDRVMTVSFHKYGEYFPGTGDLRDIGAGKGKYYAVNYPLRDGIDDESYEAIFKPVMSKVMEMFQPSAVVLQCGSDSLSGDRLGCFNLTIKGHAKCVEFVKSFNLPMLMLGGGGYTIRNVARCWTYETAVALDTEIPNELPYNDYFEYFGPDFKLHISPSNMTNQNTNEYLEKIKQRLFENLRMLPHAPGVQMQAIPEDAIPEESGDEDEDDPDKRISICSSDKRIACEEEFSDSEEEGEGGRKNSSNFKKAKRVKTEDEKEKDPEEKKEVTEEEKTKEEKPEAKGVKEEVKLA
As to the kind of experiment: Fluorogenic assay with human recombinant HDAC1, dark or illumination. Type of data set: biochemical. As to the method:
To study the inhibition of HDAC enzymes by the compounds, we used a fluorogenic assay with human recombinant HDAC1.[32] The enzyme was incubated with an acetylated substrate and each inhibitor for 1 h at room temperature, under either dark or light conditions. We opted for illumination throughout the incubation period to maintain the maximum proportion of cis under light conditions. […] Then, the deacetylated substrate generated a fluorescent coumarin after incubation of the mixture with trypsin at 37 °C for 20 min.
Stock solutions of the compounds were diluted to 1 mM in DMSO and then heated to 60 or 80 °C to obtain solutions with the maximum amount of the trans isomer (dark). […] The 1 mM solutions were then serially diluted with HDAC buffer to 10 times the desired concentration, maintaining DMSO at 10%.
In control wells without the compound, inhibitor, or enzyme, HDAC buffer was added instead. […] Then, 50 μL of the stop solution was added and the plates were incubated at 37 °C for 20 min in the dark. Fluorescence was measured at a λem of 460 nm and a λex of 380 nm. Enzyme activity is expressed as a percentage with respect to the nontreated cells, after subtracting the blank (well with no enzyme and no compound).

A further data set relates to HeLa cells. As to the kind of experiment: HeLa cell viability, MTS assay, dark or preillumination. The class given is cell-based. Conditions: in words. As to the method:
We then proceeded to evaluate the effect of the compounds in a viability assay against HeLa cells.
HeLa, MCF7, and HT29 cells were maintained in adherent cultures in DMEM supplemented with 10% FBS. KG1 cells were maintained in a suspension culture in IMDM supplemented with 20% FBS.
Stock solutions of the compounds were heated to 60 or 80 °C to obtain solutions with the maximum amount of the trans isomer (dark). […] The solutions were then serially diluted with DMEM to give 20 times the desired final concentration, maintaining DMSO at 10%.
Cells were seeded in 96-well black flat bottom plates with a clear bottom at a density of 5 × 10^3 cells/well (HeLa) or 1 × 10^4 cells/well (MCF7, HT29, and KG1), in a volume of 95 μL.
Viability of HeLa, MCF7, and […] cells was determined with a CellTiter 96 assay (Promega), according to the manufacturer’s instructions. Briefly, 20 μL of CellTiter 96 reagent was added to each well, the plates were incubated at 37 °C for 2 h, and the absorbance at 490 nm was recorded. Viability is expressed as a percentage with respect to the nontreated cells.
In general terms: Tetrazolium assays rely on reduction of a dye to a coloured formazan, in cell work by metabolically active cells.

[3] abbreviates: UV–vis at 25–50 μM in DMSO, Teleopto plates (Table 1).
The mark [4] stands for this setting: UV–vis spectra at 25–50 μM in DMSO (Table 1).
[5] abbreviates: UV–vis spectra at 25–100 μM in DMSO (Table 3).
Where [6] appears, read: HPLC at isosbestic point (290–336 nm), 100 μM in DMSO after illumination with λcis (Table 3).
[7] abbreviates: HPLC at isosbestic point (290–336 nm), 100 μM in DMSO after illumination with λtrans (Table 3).

Where two headings read alike, the source gives them in different places. A value given as a limit tells only on which side of the number the result lay.

For `CN(C)c1ccc(/N=N/c2ccc(/C=C/C(=O)Nc3ccccc3N)cc2)cc1` [Compound 12, (E)-N-(2-Aminophenyl)-3-(4-((E)-(4-(dimethylamino)phenyl)diazenyl)phenyl)acrylamide], the “λcis (optimal wavelength trans to cis)” value in data set [1] (setting [3]) was determined as 470 nm. The λmax trans in data set [1] (setting [4]) was 462 nm.

As for `COc1cc(Cl)c(/N=N/c2c(Cl)cc(C(=O)Nc3ccccc3N)cc2Cl)c(Cl)c1` [Compound 38b, (E)-N-(2-Aminophenyl)-3,5-dichloro-4-((2,6-dichloro-4-methoxyphenyl)diazenyl)benzamide], in data set [1] (setting [5]), the λcis is listed as 550 nm, the λmax cis was determined as 452 nm, the λmax trans was determined as 336 nm and the λtrans stood at 455 nm. Besides, in data set [2] (setting [6]), the “% cis at λcis” value amounted to 46%. The “% trans at λtrans” value in data set [2] (setting [7]) came to 84%.

A word on the IC50: it is the concentration that gives 50% inhibition. In the case of `CN(C)c1cc(Cl)c(/N=N/c2c(Cl)cc(/C=C/C(=O)Nc3ccccc3N)cc2Cl)c(Cl)c1` [Compound 33b, (E)-N-(2-Aminophenyl)-3-(3,5-dichloro-4-((E)-(2,6-dichloro-4-(dimethylamino)phenyl)diazenyl)phenyl)acrylamide], the “IC50(dark)/IC50(light)” value on human recombinant HDAC1 (Table 4) is >2. Further, on human recombinant HDAC1 (dark (Table 4), read-out: IC50 dark), the IC50 was > 10 µM. Moreover, in the data set on HeLa cells, the “activity under dark and illumination conditions” value is “inactive”. In data set [1] (setting [5]), this compound gave a λcis of 420 nm, a λmax trans of 412 nm and a λtrans of 550 nm.

With `COc1ccc(/N=N/c2ccc(CCC(=O)Nc3ccccc3N)cc2)cc1` [Compound 21, (E)-N-(2-Aminophenyl)-3-(4-((4-methoxyphenyl)diazenyl)phenyl)propanamide], the “IC50(dark)/IC50(light)” value on human recombinant HDAC1 (dark vs 365 or 380 nm (Table 2), fold) was >2.9. In addition, the “relative activity of cis and trans forms” value at human recombinant HDAC1 (dark vs light, in words) is recorded as “active only in the cis form”. Besides, the IC50 on human recombinant HDAC1 (dark, 1 h at room temperature (Table 2), read-out: IC50 dark) is > 10 µM. Moreover, the IC50 on human recombinant HDAC1 (illumination 365 or 380 nm, 1 h at room temperature (Table 2), read-out: IC50 light) is 3.4 µM. Besides, in data set [1] (setting [3]), the “λcis (optimal wavelength trans to cis)” value is 380 nm and the “λtrans (optimal wavelength cis to trans)” value is recorded as 550 nm. The λmax trans in data set [1] (setting [4]) came to 354 nm. For the same compound, in data set [2] (HPLC at isosbestic point (310–338 nm), 100 μM in DMSO after illumination with λcis (Table 1)), the “% cis at λcis” value is reported as 87%. Moreover, the “% trans at λtrans” value in data set [2] (HPLC at isosbestic point (310–338 nm), 100 μM in DMSO after illumination with λtrans (Table 1)) turned out to be 84%.

For `COc1cc(Cl)c(/N=N/c2c(Cl)cc(/C=C/C(=O)Nc3ccccc3N)cc2Cl)c(Cl)c1` [Compound 32b, (E)-N-(2-Aminophenyl)-3-(3,5-dichloro-4-((E)-(2,6-dichloro-4-methoxyphenyl)diazenyl)phenyl)acrylamide], the IC50 on human recombinant HDAC1 (continuous illumination 550 nm (Table 4), read-out: IC50 light) was ~10 µM. The IC50 at human recombinant HDAC1 (supplementary CSV, read-out: HDAC1 IC50 light) was 10 µM. In data set [1] (setting [5]), this compound returned a λcis of 550 nm, a λmax cis of 452 nm, a λmax trans of 338 nm and a λtrans of 455 nm. For the same compound, the “% cis at λcis” value in data set [2] (setting [6]) came to 45%. Besides, the “% trans at λtrans” value in data set [2] (setting [7]) is 88%.

For the compound `CN(C)c1ccc(/N=N/c2ccc(C(=O)NO)cc2)cc1` [Compound 19, (E)-4-((4-(Dimethylamino)phenyl)diazenyl)-N-hydroxybenzamide], the λmax trans in data set [1] (setting [4]) is on record as 446 nm.

Regarding `CN(C)c1cc(F)c(/N=N/c2c(F)cc(/C=C/C(=O)Nc3ccccc3N)cc2F)c(F)c1` [Compound 33a, (E)-N-(2-Aminophenyl)-3-(4-((E)-(4-(dimethylamino)-2,6-difluorophenyl)diazenyl)-3,5-difluorophenyl)acrylamide], the “activity at the highest tested concentration in the dark” value on human recombinant HDAC1 (10 μM, dark) is recorded as “no or little activity”. The “IC50(dark)/IC50(light)” value on human recombinant HDAC1 (Table 4) is recorded as >8.3. At human recombinant HDAC1 (continuous illumination), the “IC50 under illumination, in words” value is listed as “low micromolar range”. Further, the “activity under dark and illumination conditions” value in the data set on HeLa cells is “inactive”. In data set [1] (setting [5]), this compound came in with a λcis of 420 nm, a λmax trans of 430 nm and a λtrans of 550 nm.

The values above are taken from PMC9949698, “Visible-Light-Controlled Histone Deacetylase Inhibitors for Targeted Cancer Therapy” (Journal of Medicinal Chemistry, 2023).
